Data set [1] can be described thus: Phase 1 studies, safety. The data set is classed as in vivo, human. The method, then: In the Phase 1 studies, 536 subjects were exposed to Compound 1 IV or oral formulations. Single IV doses up to 600 mg and single oral doses up to 600 mg have been investigated. Multiple IV doses of 100 mg once daily and 200 mg once daily for up to 14 and 7 consecutive days, respectively, have been investigated.

Data set [2] can be described thus: In vitro plasma protein binding (ultrafiltration), human plasma. In kind it is in vitro ADME. The conditions noted are these: male; human plasma; 10-10,000 ng/mL; mean±SD; read-out: mean unbound protein fraction (fu) in plasma. The method, then:
(§1) For human binding studies, plasma was obtained from the blood of three healthy male volunteers. Plasma was defrosted from storage at -20° C. before use, and pools of human plasma were used for all studies. Plasma from mouse, rat, and monkey was supplied by Harlan Laboratories Ltd. (Netherlands), Milan […], Switzerland) and Centre de Primatologie ULP (France), respectively. Protein binding was measured using an ultrafiltration method. To asses the suitability of ultrafiltration, the recovery and free permeation of [^14C]-labelled Compound 1 in PBS buffer were investigated. […] Three 1 mL aliquots per concentration were introduced into […]® devices and spun for 1 min at 2000 g (filtrate ≤500 μL). Samples of the spiked solutions, the filtrate and retentate were quantified by LSC; volumes were determined by weighing. The free permeation of the test compound in PBS was evaluated as follows: Ratio=[Cuf/Cr] with Cuf being the concentration in the ultrafiltrate (ng/mL) and Cr the concentration in the retentate (ng/mL). […] Specifically, concentrations of Compound 1 was determined by an UPLC-MS/MS method. […] Standards and quality control samples were prepared on the day of analysis by adding a 20 μL aliquot of an appropriate standard or QC spiking solution in methanol. A 25 μL aliquot of the internal standard (at 200 ng/mL in methanol) was added to each well except blanks. […] Samples were processed using protein precipitation. A 0.5 mL aliquot of an acetonitrile/ethanol/acetic acid mixture (90:10:0.1, v:v:v) was added to each sample; samples were mixed using a vortex mixer for 10 minutes, and centrifuged 3800 rpm (approximately 2500×g) for 10 min at 10° C. A 500 μL aliquot of the supernatant transferred to a clean 96 well plate, 2 ml. An aliquot 500 μL of 80:20 (water:acetonitrile) was added to all the samples. Samples were mixed by vortexing for 0.5 min. A 6 μL sample volume was injected into the UPLC/MS/MS system for analysis. Samples were then assayed on an UPLC-MS/MS system, consisting of an Acquity UPLC with a quaternary pump, a ample manager, and sample organizer, coupled to a Sciex API4000 mass spectrometer running Analyst software version 1.4.2 (Foster City, Calif., USA). The mass spectrometer was operated in the positive ion mode, using electro spray ionization, with a source temperature of 500° C. Chromatographic separation was carried out on an Acquity BEH C18, 50×2.1, 1.7 particle (Waters, Mass.) at a flow rate of 1.0 mL/min. The column temperature was maintained at 65° C. […] The ions monitored for Compound 1 was the parent [M+H]^+ ion at m/z 557.3.0; the product ions at m/z 453.4. Data processing: Calibration curves (y=x^2+xb+c or y=ax+b), represented by the plots of the respective peak area ratios (y) of the analyte […] versus the concentrations (x) of the calibration samples, were generated using weighted (1/x^2 or 1/x) quadratic least-squares regression as the mathematical model. The quantification was performed using Analyst software and Watson LIMS version 7.2.0.01. Concentrations in QC and study samples were calculated from the resulting peak area ratios and interpolation from the regression equations of the respective calibration curves. The lower limit of quantitation was 5.0 ng/mL for Compound 1.

In data set [3] the test system is plasma proteins. The description is as above. The data set is classed as in vitro ADME. How it is done: as §1
The test system of data set [4] is S. saprophyticus. In words: In vitro MIC90 against common uncomplicated UTI pathogens. In kind it is cell-based. The settings on record: Staphylococcus saprophyticus. How it is done: The minimum inhibitory concentrations for at least 90% of the isolates (MIC90) tested for Compound 1 against these common pathogens are 1 μg/mL for S. saprophyticus, 2 μg/mL for ESBL-negative E. coli, and 4 μg/mL for ESBL-producing E. coli.

For data set [5], the system named is E. coli (ATCC 25922). Briefly: Broth microdilution MIC against planktonic E. coli. The data set is classed as cell-based. The conditions noted are these: Escherichia coli, ATCC25922, extrapolated from OD650 plot after 24 hours, read-out: minimum inhibitory concentration (MIC). How it is done:
Antimicrobial activity of Compound 1 against E. coli (ATCC 25922) was determined using a standard broth microdilution method (CLSI in Methods for Dilution Antimicrobial Susceptibility Tests for Bacteria That Grow Aerobically, Approved Standard M7-A8, Clinical and Laboratory Standards Institute, Wayne, Pa. (USA), 2011, incorporated herein by reference) with slight modifications.

Data set [6] in a line: Phase 1 studies, plasma pharmacokinetics (IV and oral).
For data set [7], the system named is Acinetobacter. In words: In vitro MIC, 2010 surveillance isolates. The data set is classed as cell-based. The conditions noted are these: N=952.
Data set [8] concerns P. mirabilis. Briefly: In vitro MIC, 2010 surveillance isolates. In kind it is cell-based. The settings on record: N=384.
Data set [9] relates to Citrobacter spp. Briefly: In vitro MIC, 2010 surveillance isolates. The conditions noted are these: N=253. The data set is classed as cell-based.
Data set [10] deals with human plasma protein. The settings on record: cited from earlier work.

SMILES strings stand for the structures. Converted amounts (≈) assume the structure as drawn. “And” between values parts separate entries of the source, which are not always exact repeats. Identical values can stand only once.

As a reminder, the fraction unbound is the share of the substance not bound to proteins or other matrix. As usually defined, the MIC90 is the lowest concentration that inhibits either 90% of growth or 90% of the strains tested, depending on the study. Broadly, the half-life is the time in which the quantity being followed falls by half. As a reminder, the Cmax is the maximum level reached in the sampled fluid or tissue. Take `CN(C)c1cc(CNCC(C)(C)C)c(O)c2c1C[C@H]1C[C@H]3[C@H](N(C)C)C(O)=C(C(N)=O)C(=O)[C@@]3(O)C(O)=C1C2=O` [Compound 1, 9-[(2,2-dimethyl-propylamino)-methyl]-minocycline]: in data set [1] (all Phase 1 studies, subjects who received multiple doses), the “discontinuations due to drug-related adverse events” value is “no discontinuations due to drug-related adverse events”. Moreover, in data set [1] (multiple p.o. doses of 200 mg and 300 mg once daily for up to 10 consecutive days), the serious adverse events result is recorded as “without any serious adverse events”. For the same molecule, the fraction unbound in data set [2] is 0.787 ± 0.0972; in data set [3] (male, human, plasma, Mean over concentrations), 0.787. In addition, the “Mean (SD) Bound Fraction” value in [3] (human plasma, 10-10,000 ng/mL) is 21% and 21.3 (9.72) %. Also, the “concentration dependency of plasma protein binding” value in data set [3] (human plasma, 10-10,000 ng/mL) is on record as “not concentration dependent”. The “mean unbound protein fraction (fu) in plasma” value in data set [3] (human plasma, 10-10,000 ng/mL, mean±SD) stood at 78.7±9.7%. Also, the fraction unbound at 100 ng/mL in data set [3] (male, human, plasma, Concentration 100 ng/mL) was 0.656. Besides, the fraction unbound at 1000 ng/mL in data set [3] (male, human, plasma, Concentration 1,000 ng/mL) is 0.878. In [3] (male, human, plasma, Concentration 10,000 ng/mL), the free fraction (fraction unbound) at 10000 ng/mL is 0.798. The MIC90 in data set [4] turned out to be 1 µg/mL (≈ 1.8 µM). In [5], the MIC is 1.13 µg/mL (≈ 2.03 µM). Further, the “bioequivalence of tablet and IV dose” value in [6] (300 mg dose of tablet) is recorded as “bioequivalent to a 100 mg IV dose”. Moreover, the half-life in data set [6] (human, in vivo) was around 18 h. In [6] (human, in vivo, iv, 100 mg), the Cmax is around 1800 ng/mL. In addition, the “exposure based on plasma concentrations, higher at steady-state than after a single dose” value in data set [6] (steady state vs single dose) was “approximately 50%”. In addition, the “steady state AUC (IV and oral) and Cmax (oral) relative to single IV or oral dose” value in data set [6] (steady state vs single dose) is recorded as “approximately 1.5 ×”. Moreover, the “Cumulative % Inhibition at MIC” value in data set [7] (MIC 1 μg/ml) turned out to be 44.1%; in data set [7] (MIC 2 μg/ml) it was 73.1%; in data set [7] (MIC 4 μg/ml) it was 93.5%; in [7] (MIC 8 μg/ml), 98.5%; in data set [7] (MIC 16 μg/ml) it was 99.5%; in data set [7] (MIC ≤0.5 μg/ml, listed as head image P00018) it was 31.1%. Also, the “Cumulative % Inhibition at MIC” value in [7] (MIC ≥32 μg/ml) is recorded as 100%; in data set [8] (MIC 1 μg/ml), 0.3%; in data set [8] (MIC 2 μg/ml), 1.3%; in data set [8] (MIC 4 μg/ml), 5.7%; in [8] (MIC 8 μg/ml) it was 22.9%; in data set [8] (MIC 16 μg/ml), 56.8%. The “Cumulative % Inhibition at MIC” value in [8] (MIC ≤0.5 μg/ml) was 0%; in data set [8] (MIC ≥32 μg/ml) it was 100%; in [9] (MIC 1 μg/ml), 44.7%; in data set [9] (MIC 2 μg/ml), 79.1%; in data set [9] (MIC 4 μg/ml), 93.3%; in data set [9] (MIC 8 μg/ml) it was 97.6%. Besides, the “Cumulative % Inhibition at MIC” value in [9] (MIC 16 μg/ml) stood at 100%; in [9] (MIC ≤0.5 μg/ml, listed as head image P00016) it was 14.6%.

Consider `CN(C)c1cc(NC(=O)CNC(C)(C)C)c(O)c2c1C[C@H]1C[C@H]3[C@H](N(C)C)C(O)=C(C(N)=O)C(=O)[C@@]3(O)C(O)=C1C2=O` [Tigecycline], for which the “type of plasma protein binding” value in data set [10] (binding increases with increasing drug concentrations) is recorded as “atypical, non-linear protein binding”. The “human plasma protein binding, Mean” value in data set [10] (literature) is recorded as 71-87%.

Values taken from patent publication US10238670B2, “9-aminomethyl minocycline compounds and methods of use thereof in urinary tract infection (UTI) treatment” (Paratek Pharmaceuticals, Inc., priority 2016, dated 2019).
